From ChEMBL document CHEMBL3272053, “(exo, exo)-2-Aryltropane-3-carboxylic esters, hypoglycemic agents with accompanying analgesic activity” (J Med Chem, 1978)
Activity calls are given as the source filed them. The calls are words filed in the database; no cut-off is given here.

Assays:
[1] = tested on: Rattus norvegicus; test: Narcotic analgesic activity in fed Sprague-Dawley rat at 240 mg/kg, sc measured at 30 mins by D'Amour-Smith tail-flick test; format: functional; conditions: route subcutaneous
[2] = tested on: Rattus norvegicus; test: Analgesic activity in rat assessed as protection against intraarterial bradykinin-induced pain response at 50 mg/kg, sc relative to control; format: functional; conditions: route subcutaneous
[3] = tested on: Mus musculus; test: Analgesic activity in sc dosed Swiss-Webster mouse assessed as reduction of acetylcholine-induced writhing; format: functional; conditions: Mus musculus, Swiss-Webster, sc; for ED50: read-out: ED50
[4] = tested on: Rattus norvegicus; test: Hypoglycemic activity in Sprague-Dawley rat assessed as reduction of blood glucose level at 87 mg/kg, po by glucagon-impaired glucose disposal test relative to control; format: functional; parameters: scale not given: the % may be the effect or the level left
[5] = tested on: Rattus norvegicus; test: Toxicity in Sprague-Dawley rat assessed as tremor at 240 mg/kg, sc; format: organism-based; parameters: dose 240 mg/kg, route subcutaneous; conditions: in vivo
[6] = tested on: Rattus norvegicus; test: Toxicity in Sprague-Dawley rat assessed as convulsion at 240 mg/kg, sc; format: organism-based; parameters: dose 240 mg/kg, route subcutaneous; conditions: in vivo
[7] = tested on: Rattus norvegicus; test: Hypoglycemic activity in Sprague-Dawley rat assessed as reduction of blood glucose level at 78 mg/kg, po by glucagon-impaired glucose disposal test relative to control; format: functional; parameters: scale not given: the % may be the effect or the level left
[8] = tested on: Rattus norvegicus; test: Narcotic analgesic activity in fasted Sprague-Dawley rat at 240 mg/kg, po measured at 15 mins by D'Amour-Smith tail-flick test relative to control; format: functional
[9] = tested on: Rattus norvegicus; test: Narcotic analgesic activity in fasted Sprague-Dawley rat at 240 mg/kg, po measured at 60 mins by D'Amour-Smith tail-flick test relative to control; format: functional
[10] = tested on: Mus musculus; test: Analgesic activity in Swiss-Webster mouse assessed as reduction of acetylcholine-induced writhing at 75 mg/kg, sc relative to control; format: functional; parameters: scale not given: the % may be the effect or the level left; conditions: route subcutaneous
[11] = tested on: Rattus norvegicus; test: Hypoglycemic activity in glucose loaded Sprague-Dawley rat assessed as reduction of blood glucose level at 264 mg/kg, po relative to control; format: functional; parameters: scale not given: the % may be the effect or the level left
[12] = tested on: Rattus norvegicus; test: Hypoglycemic activity in Sprague-Dawley rat assessed as reduction of blood glucose level at 88 mg/kg, po by glucagon-impaired glucose disposal test relative to control; format: functional
[13] = tested on: Mus musculus; test: Analgesic activity in Swiss-Webster mouse assessed as reduction of acetylcholine-induced writhing at 50 mg/kg, po relative to control; format: functional; parameters: scale not given: the % may be the effect or the level left
[14] = species on record: Rattus norvegicus; test: Narcotic analgesic activity in Sprague-Dawley rat measured at 15 mins by D'Amour-Smith tail-flick test relative to control; format: functional
[15] = tested on: Rattus norvegicus; test: Hypoglycemic activity in glucose loaded Sprague-Dawley rat assessed as reduction of blood glucose level at 100 mg/kg, po relative to control; format: functional; parameters: scale not given: the % may be the effect or the level left
[16] = tested on: Rattus norvegicus; test: Hypoglycemic activity in glucose loaded Sprague-Dawley rat assessed as reduction of blood glucose level at 84 mg/kg, po relative to control; format: functional; parameters: scale not given: the % may be the effect or the level left
[17] = tested on: Rattus norvegicus; test: Toxicity in Sprague-Dawley rat assessed as convulsion at 480 mg/kg, po; format: organism-based; parameters: dose 480 mg/kg, route oral; conditions: in vivo
[18] = tested on: Rattus norvegicus; test: Analgesic activity in po dosed rat assessed as reduction of intraarterial bradykinin-induced pain response; format: functional
[19] = tested on: Rattus norvegicus; test: Hypoglycemic activity in Sprague-Dawley rat assessed as reduction of blood glucose level at 100 mg/kg, po by glucagon-impaired glucose disposal test relative to control; format: functional; parameters: scale not given: the % may be the effect or the level left
[20] = tested on: Rattus norvegicus; test: Narcotic analgesic activity in fasted Sprague-Dawley rat at 480 mg/kg, po measured at 60 mins by D'Amour-Smith tail-flick test relative to control; format: functional
[21] = tested on: Rattus norvegicus; test: Toxicity in Sprague-Dawley rat assessed as tremor at 480 mg/kg, po; format: organism-based; parameters: dose 480 mg/kg, route oral; conditions: in vivo
[22] = tested on: Rattus norvegicus; test: Hypoglycemic activity in glucose loaded Sprague-Dawley rat assessed as reduction of blood glucose level at 64 mg/kg, po relative to control; format: functional; parameters: scale not given: the % may be the effect or the level left
[23] = tested on: Mus musculus; test: Analgesic activity in po dosed Swiss-Webster mouse assessed as reduction of acetylcholine-induced writhing; format: functional
[24] = tested on: Rattus norvegicus; test: Hypoglycemic activity in glucose loaded Sprague-Dawley rat assessed as reduction of blood glucose level at 64 mg/kg, po in presence of microsomal enzyme inhibitor SKF 525-A; format: functional, organism-based; parameters: dose 64 mg/kg
[25] = tested on: Rattus norvegicus; test: Toxicity in Sprague-Dawley rat assessed as very rigid structure at 240 mg/kg, po; format: organism-based; parameters: dose 240 mg/kg, route oral; conditions: in vivo
[26] = tested on: Rattus norvegicus; test: Toxicity in Sprague-Dawley rat assessed as hyperexcitability at 240 mg/kg, po; format: organism-based; parameters: dose 240 mg/kg, route oral; conditions: in vivo
[27] = tested on: Rattus norvegicus; test: Hypoglycemic activity in Sprague-Dawley rat assessed as reduction of blood glucose level at 300 mg/kg, po by glucagon-impaired glucose disposal test relative to control; format: functional; parameters: scale not given: the % may be the effect or the level left
[28] = tested on: Rattus norvegicus; test: Toxicity in Sprague-Dawley rat assessed as convulsion at 240 mg/kg, po; format: organism-based; parameters: dose 240 mg/kg, route oral; conditions: in vivo
[29] = tested on: Rattus norvegicus; test: Hypoglycemic activity in fasted Sprague-Dawley rat assessed as reduction of blood glucose level at 89 mg/kg, po relative to control; format: functional; parameters: scale not given: the % may be the effect or the level left
[30] = tested on: Mus musculus; test: Analgesic activity in Swiss-Webster mouse assessed as reduction of acetylcholine-induced writhing at 25 mg/kg, sc relative to control; format: functional; parameters: scale not given: the % may be the effect or the level left; conditions: route subcutaneous
[31] = tested on: Rattus norvegicus; test: Toxicity in Sprague-Dawley rat assessed as jumpy behavior at 480 mg/kg, po; format: organism-based; parameters: dose 480 mg/kg, route oral; conditions: in vivo
[32] = tested on: Rattus norvegicus; test: Toxicity in rat assessed as slight rigidity at 480 mg/kg, po; format: organism-based; parameters: dose 480 mg/kg, route oral; conditions: in vivo
[33] = tested on: Rattus norvegicus; test: Toxicity in Sprague-Dawley rat assessed as stiff tail at 480 mg/kg, po; format: organism-based; parameters: dose 480 mg/kg, route oral; conditions: in vivo
[34] = tested on: Rattus norvegicus; test: Hypoglycemic activity in glucose loaded Sprague-Dawley rat assessed as reduction of blood glucose level at 88 mg/kg, po relative to control; format: functional; parameters: scale not given: the % may be the effect or the level left
[35] = tested on: Rattus norvegicus; test: Narcotic analgesic activity in fasted Sprague-Dawley rat at 120 mg/kg, po measured at 15 mins by D'Amour-Smith tail-flick test relative to control; format: functional
[36] = tested on: Mus musculus; test: Toxicity in Swiss-Webster mouse assessed as stimulation of straub tail at 2.5 mg/kg, sc after 15 to 25 mins; format: organism-based; parameters: dose 2.5 mg/kg, route subcutaneous; conditions: in vivo
[37] = tested on: Rattus norvegicus; test: Hypoglycemic activity in fasted Sprague-Dawley rat assessed as reduction of blood glucose level at 78 mg/kg, iv relative to control; format: functional, organism-based; parameters: dose 78 mg/kg
[38] = tested on: Rattus norvegicus; test: Hypoglycemic activity in fasted Sprague-Dawley rat assessed as reduction of blood glucose level at 78 mg/kg, po relative to control; format: functional; parameters: scale not given: the % may be the effect or the level left
[39] = tested on: Rattus norvegicus; test: Toxicity in Sprague-Dawley rat assessed as hyperexcitability at 480 mg/kg, po; format: organism-based; parameters: dose 480 mg/kg, route oral; conditions: in vivo
[40] = tested on: Rattus norvegicus; test: Narcotic analgesic activity in fasted Sprague-Dawley rat at 120 mg/kg,sc measured at 30 mins by D'Amour-Smith tail-flick test in presence of opioid antagonist nalorphine; format: functional, organism-based; parameters: dose 120 mg/kg
[41] = tested on: Rattus norvegicus; test: Hypoglycemic activity in Sprague-Dawley rat assessed as reduction of blood glucose level at 88 mg/kg, po by glucagon-impaired glucose disposal test in presence of opioid antagonist nalorphine; format: functional, organism-based; parameters: dose 88 mg/kg
[42] = tested on: Rattus norvegicus; test: Narcotic analgesic activity in fasted Sprague-Dawley rat at 120 mg/kg, po measured at 60 mins by D'Amour-Smith tail-flick test relative to control; format: functional
[43] = tested on: Rattus norvegicus; test: Hypoglycemic activity in Sprague-Dawley rat assessed as reduction of blood glucose level at 88 mg/kg, po by glucagon-impaired glucose disposal test in presence of microsomal enzyme inhibitor SKF 525-A; format: functional, organism-based; parameters: dose 88 mg/kg
[44] = tested on: Rattus norvegicus; test: Hypoglycemic activity in Sprague-Dawley rat assessed as reduction of blood glucose level at 100 mg/kg, po; format: functional, organism-based; parameters: dose 100 mg/kg
[45] = tested on: Rattus norvegicus; test: Toxicity in Sprague-Dawley rat assessed as rigidity at 240 mg/kg, sc; format: organism-based; parameters: dose 240 mg/kg, route subcutaneous; conditions: in vivo
[46] = species on record: Rattus norvegicus; test: Narcotic analgesic activity in Sprague-Dawley rat at 15 mins by D'Amour-Smith tail-flick test in presence of microsomal enzyme inhibitor SKF 525-A; format: functional, organism-based
[47] = tested on: Rattus norvegicus; test: Toxicity in Sprague-Dawley rat assessed as hyperexcitability at 120 mg/kg, po; format: organism-based; parameters: dose 120 mg/kg, route oral; conditions: in vivo
[48] = tested on: Rattus norvegicus; test: Toxicity in Sprague-Dawley rat assessed as tremor at 120 mg/kg, po; format: organism-based; parameters: dose 120 mg/kg, route oral; conditions: in vivo
[49] = tested on: Rattus norvegicus; test: Hypoglycemic activity in Sprague-Dawley rat assessed as reduction of blood glucose level at 87 mg/kg, po by glucagon-impaired glucose disposal test in presence of microsomal enzyme inhibitor SKF 525-A; format: functional, organism-based; parameters: dose 87 mg/kg

## CC(=O)[C@H]1C[C@H]2CC[C@H]([C@H]1c1cccs1)N2C.Cl
[1]
  Activity: 55%
[2]
  Activity: 80%
[3]
  ED50: 12 mg/kg
[4]
  Activity: 26%
[5]
  Activity: Toxic
[6]
  Activity: Toxic

## CN1[C@@H]2CC[C@@H]1[C@@H](c1ccccc1)[C@@H](C(=O)O)C2
[7]
  Activity: <20%
[8]
  Activity: <20%
[9]
  Activity: <20%
[10]
  Activity: 7%

## COC(=O)CN1[C@@H]2CC[C@@H]1[C@@H](c1cccs1)[C@@H](C(=O)OC)C2.Cl
[11]
  Activity: 70%
[8]
  Activity: 100%
[12]
  Activity: inactive
[13]
  Activity: 33%

## CCC(CC)CN1[C@@H]2CC[C@@H]1[C@@H](c1cccs1)[C@@H](C(=O)OC)C2
[14]
  Activity: 24%
[8]
  Activity: 72%
[15]
  Activity: 69%
[10]
  Activity: 7%

## COC(=O)[C@H]1C[C@H]2CC[C@H]([C@H]1C)N2C.Cl
[16]
  Activity: <20%

## COC(=O)[C@H]1C[C@H]2CC[C@H]([C@H]1c1ccc[nH]1)N2C
[17]
  Activity: Toxic
[18]
  ED50: 8.5 mg/kg
[19]
  Activity: 30%
[20]
  Activity: 86%
[3]
  ED50: 18 mg/kg
[21]
  Activity: Toxic
[9]
  Activity: 19%

## COC(=O)[C@H]1C[C@H]2CC[C@H]([C@H]1c1cccs1)N2CCC#N.Cc1ccc(S(=O)(=O)O)cc1
[22]
  Activity: 64%
[8]
  Activity: 100%
[23]
  ED50: 60 mg/kg
[24]
  Activity: Active
[25]
  Activity: Toxic

## COC(=O)[C@H]1C[C@H]2CC[C@H]([C@H]1c1ccsc1)N2C
[3]
  ED40: 12 mg/kg
[26]
  Activity: Toxic
[27]
  Activity: 42%
[9]
  Activity: 40%

## COC(=O)[C@H]1C[C@H]2CC[C@H]([C@H]1c1cccs1)N2C(C)C.Cl
[28]
  Activity: Toxic
[8]
  Activity: 87%
[29]
  Activity: 40%
[30]
  Activity: 13%

## CCCCCCCN1[C@@H]2CC[C@@H]1[C@@H](c1cccs1)[C@@H](C(=O)OC)C2
[31]
  Activity: Toxic
[19]
  Activity: 40%
[32]
  Activity: Toxic
[9]
  Activity: 70%
[33]
  Activity: Toxic
[10]
  Activity: 27%

## CCOC(=O)[C@H]1C[C@H]2CC[C@@H](N2)[C@H]1c1cccs1.Cl
[34]
  Activity: 66%
[35]
  Activity: 85%
[36]
  Activity: Toxic
[3]
  ED50: 2.8 mg/kg

## Cl.O=C(O)[C@H]1C[C@H]2CC[C@@H](N2)[C@H]1c1cccs1
[37]
  Activity: inactive
[38]
  Activity: <20%

## COC(=O)[C@H]1C[C@H]2CC[C@H]([C@H]1c1ccccc1)N2Cc1ccccc1
[19]
  Activity: 42%
[20]
  Activity: 60%
[23]
  ED50: 21 mg/kg
[21]
  Activity: Toxic
[39]
  Activity: Toxic

## COC(=O)[C@@H]1C[C@@H]2CC[C@@H]([C@@H]1c1cccs1)N2C.Cl
[40]
  Activity: inactive
[1]
  Activity: 62%
[41]
  Activity: Active
[42]
  Activity: 26%
[43]
  Activity: inactive
[44]
  Activity: inactive
[45]
  Activity: Toxic
[5]
  Activity: Toxic
[12]
  Activity: <20%
[46]
  Activity: inactive

## COC(=O)[C@H]1C[C@H]2CC[C@@H](N2)[C@H]1c1ccccc1.Cl
[35]
  Activity: 69%
[47]
  Activity: Toxic
[3]
  ED50: 4 mg/kg
[4]
  Activity: 31%
[48]
  Activity: Toxic
[49]
  Activity: Active
